Reference: patent US20070258961A1, “Cholesterol efflux and uses thereof” (priority 2002, published 2007)

Assays:
[1] = system: CYP27; test: CYP27 expression in transfected macrophages with demethylation agent; type: cell-based, mouse; details: 0.5 μM, CMV promoter silenced by methylation
Protocol: Red, in D, is the mitochondrial marker dye, green in C, is CYP27.
Macrophages were cultured and transfected the same as for the CHOP cells in Example 1 except that after transfection, 0.5 μM 5-azacytidine was included in all further incubations. […] Panels A and B in FIG. 11 are actually transfected cells, but not treated with 5-azacytidine.

[2] = system: CYP27; details: promoter studies; cited from earlier work

Compound | effect on CYP27 expression in transfected macrophages [1] | regulation of CYP27 expression [2]
Nc1ncn([C@@H]2O[C@H](CO)[C@@H](O)[C@H]2O)c(=O)n1 [5-azacytidine] | expressed CYP27 | –
C[C@H](CCC(=O)O)[C@H]1CC[C@H]2[C@@H]3[C@H](O)C[C@@H]4C[C@H](O)CC[C@]4(C)[C@H]3C[C@H](O)[C@]12C [cholic acid] | – | downregulated
